# Test results as given in ChEMBL document CHEMBL5620423, “Highly-tumor-targeted PAD4 inhibitors with PBA modification inhibit tumors in vivo by specifically inhibiting the PAD4-H3cit-NETs pathway in neutrophils” (Eur J Med Chem, 2023).
# Activity calls are given as the source filed them. No cut-off for these calls is given here.
# Assays:
# 4T1 [1] = assay: Cytotoxicity against mouse 4T1 cells assessed as reduction in cell viability measured after 48 hrs by MTT assay; conditions: 4T1, 48 h
# Sarcoma-180 [2] = assay: Antitumor activity against Sarcoma-180 mouse model assessed as inhibition of tumor growth at 10 umol/kg; type: functional
# Sarcoma-180 [3] = assay: Antitumor activity against Sarcoma-180 mouse model assessed as tumor weight at 10 umol/kg (reference value: 1.65 +/-0.2 gms); type: functional; conditions: dose 10 µmol/kg
# 4T1 [4] = assay: Antitumor activity against mouse 4T1 cells xenografted in BALB/c mouse assessed as reduction in tumor weight at 10 umol/kg, iv for 21 days; type: functional, organism-based; conditions: dose 10.0 µmol/kg, time 21.0 day
# [5] = Toxicity in BALB/c mouse xenografted with mouse 4T1 cells assessed as decrease in body weight at 10 umol/kg, iv measured after 9 to 15 days; type: organism-based; conditions: in vivo, time 9-15 day, dose 10 µmol/kg
# [6] = Nephrotoxicity in BALB/c mouse xenografted with mouse 4T1 cells assessed as reduction in serum BUN level at 10 umol/kg, iv for 21 days; type: toxicity, organism-based; conditions: in vivo, 504 h, dose 10 µmol/kg, time 21 day
# [7] = Hepatotoxicity in BALB/c mouse xenografted with mouse 4T1 cells assessed as reduction in serum ALT level at 10 umol/kg, iv for 21 days; type: toxicity, organism-based; conditions: in vivo, 504 h, dose 10 µmol/kg, time 21 day
# 4T1 [8] = assay: Antitumor activity against mouse 4T1 cells xenografted in BALB/c mouse assessed as reduction in tumor volume at 10 umol/kg, iv for 21 days; type: functional, organism-based; conditions: dose 10.0 µmol/kg, time 21.0 day
# [9] = Nephrotoxicity in BALB/c mouse xenografted with mouse 4T1 cells assessed as […] in serum creatinine level at 10 umol/kg, iv for 21 days; type: toxicity, organism-based; conditions: in vivo, 504 h, dose 10 µmol/kg, time 21 day
# 4T1 [10] = assay: Anti-metastatic activity against mouse 4T1 cells xenografted in BALB/c mouse assessed as reduction in number of lung metastatic tumor nodules at 10 umol/kg, iv for 21 days; type: functional, organism-based; conditions: dose 10.0 µmol/kg, time 21.0 day
# [11] = molecular target: Protein-arginine deiminase type-4 (Homo sapiens, UniProt Q9UM07); assay: Inhibition of PAD4 (unknown origin) using BAEE as substrate by colorimetric analysis
# [12] = molecular target: Protein-arginine deiminase type-4 (Mus musculus) (UniProt Q9Z183); assay: Inhibition of PAD4 in mouse bone marrow neutrophils assessed as reduction in H3 cit expression by measuring red filamentous histone structure at 50 uM measured after 48 hrs by Hoechst33342 staining based confocal laser scanning microscopy; type: cell-based; conditions: Neutrophil
# 4T1 [13] = assay: Antitumor activity against mouse 4T1 cells xenografted in BALB/c mouse assessed as reduction in tumor volume at 2 to 10 umol/kg, iv for 21 days; type: functional, organism-based; conditions: dose 2-10 µmol/kg, time 21.0 day
# [14] = Nephrotoxicity in BALB/c mouse xenografted with mouse 4T1 cells assessed as serum BUN level at 2 to 10 umol/kg, iv for 21 days; type: toxicity, organism-based; conditions: in vivo, 504 h, dose 2-10 µmol/kg, time 21 day
# Mus musculus [15] = assay: Immunomodulatory activity in iv dosed BALB/c mouse xenografted with mouse 4T1 cells assessed as increase in normal neutrophils in tumor tissues administered for 21 days by CyTOF analysis; type: functional, organism-based; conditions: time 21.0 day
# [16] = Toxicity in BALB/c mouse xenografted with mouse 4T1 cells assessed as heart morphological changes at 10 umol/kg, iv for 21 days by Hematoxylin-Eosin staining based analysis; type: organism-based; conditions: in vivo, 504 h, dose 10 µmol/kg, time 21 day
# [17] = Drug uptake in mouse 4T1 cells assessed as increase in green fluorescence intensity at 50 uM measured for 24 hrs flow cytometry; type: ADME, cell-based; conditions: 4t1, 24 h
# 4T1 [18] = assay: Cytotoxicity against mouse 4T1 cells assessed as effect on cell viability at 3.125 to 100 uM measured after 48 hrs by MTT assay; type: functional, cell-based; conditions: dose 3.125-100 µM
# Lewis lung carcinoma = assay: Cytotoxicity against mouse Lewis lung carcinoma cells assessed as effect on cell viability at 3.125 to 100 uM measured after 48 hrs by MTT assay; type: functional, cell-based; conditions: dose 3.125-100 µM
# [19] = Drug uptake in mouse 4T1 cells assessed as layer of green fluorescence around the cell membrane at 50 uM measured after 48 hrs by Hoechst33342 staining based confocal laser microscopy; type: ADME; conditions: 4t1, 48 h
# Mus musculus [20] = assay: Immunomodulatory activity in iv dosed BALB/c mouse xenografted with mouse 4T1 cells assessed as macrophage polarization by measuring increase in proportion of M1 macrophages administered for 21 days by CyTOF analysis; type: functional, organism-based; conditions: time 21.0 day
# [21] = Toxicity in BALB/c mouse xenografted with mouse 4T1 cells assessed as liver morphological changes at 10 umol/kg, iv for 21 days by Hematoxylin-Eosin staining based analysis; type: organism-based; conditions: in vivo, 504 h, dose 10 µmol/kg, time 21 day
# [22] = Nephrotoxicity in BALB/c mouse xenografted with mouse 4T1 cells assessed as serum creatinine level at 2 to 10 umol/kg, iv for 21 days; type: toxicity, organism-based; conditions: in vivo, 504 h, dose 2-10 µmol/kg, time 21 day
# [23] = Toxicity in BALB/c mouse xenografted with mouse 4T1 cells assessed as spleen morphological changes at 10 umol/kg, iv for 21 days by Hematoxylin-Eosin staining based analysis; type: organism-based; conditions: in vivo, 504 h, dose 10 µmol/kg, time 21 day
# 4T1 [24] = assay: Anti-metastatic activity against mouse 4T1 cells assessed as reduction in tumor cell lesions in lungs at 5 umol/kg, iv for 21 days by Hematoxylin-Eosin staining; type: functional, organism-based; conditions: dose 5.0 µmol/kg, time 21.0 day
# 4T1 [25] = assay: Anti-metastatic activity against mouse 4T1 cells xenografted in BALB/c mouse assessed as reduction in number of lung metastatic tumor nodules at 5 to 10 umol/kg, iv for 21 days; type: functional, organism-based; conditions: dose 5-10 µmol/kg, time 21.0 day
# [26] = Drug uptake in mouse 4T1 cells assessed as drug localization in cytoplasm at 50 uM measured after 48 hrs by Hoechst33342 staining based confocal laser scanning microscopy; type: ADME, cell-based; conditions: 4t1, 48 h
# 4T1 [27] = assay: Anti-metastatic activity against mouse 4T1 cells assessed as reduction in neutrophil extranuclear traps formation by measuring decrease in H3cit positivity in tumor at 10 umol/kg, iv for 21 days by immunofluorescence analysis; type: functional, organism-based; conditions: dose 10.0 µmol/kg, time 21.0 day
# [28] = Drug uptake in mouse bone marrow neutrophils assessed as drug localization in nucleus at 50 uM measured after 48 hrs by Hoechst33342 staining based confocal laser scanning microscopy; type: ADME, cell-based; conditions: neutrophil
# 4T1 [29] = assay: Induction of cell morphological changes in mouse 4T1 cells assessed as reduction in pseudopodia on cell surface at 50 uM measured after 48 hrs by scanning electron microscopy; type: functional, cell-based
# 4T1 [30] = assay: Induction of cell morphological changes in mouse 4T1 cells assessed as increase in number of cells with shrank mitochondria measured after 48 hrs by transmission electron microscopy; type: functional, cell-based
# 4T1 [31] = assay: Induction of cell morphological changes in mouse 4T1 cells assessed as rounded tumor cells at 50 uM measured after 48 hrs by scanning electron microscopy; type: functional, cell-based
# [32] = Drug uptake in human HL7702 cells assessed as green fluorescence intensity at 50 uM measured after 48 hrs by Hoechst33342 staining based confocal laser microscopy; type: ADME, cell-based; conditions: l02, 48 h
# Mus musculus [33] = assay: Immunomodulatory activity in iv dosed BALB/c mouse xenografted with mouse 4T1 cells assessed as macrophage polarization by measuring proportion of M2 macrophages administered for 21 days by CyTOF analysis; type: functional, organism-based; conditions: time 21.0 day
# L02 = assay: Cytotoxicity against human HL7702 cells assessed as effect on cell viability at 3.125 to 100 uM measured after 48 hrs by MTT assay; type: toxicity, cell-based; conditions: l02, 48 h, dose 3.125-100 µM
# 4T1 [34] = assay: Anti-metastatic activity against mouse 4T1 cells assessed as reduction in neutrophil extranuclear traps formation by measuring decrease in Ly6G-labeled neutrophils in tumor at 10 umol/kg, iv for 21 days by immunofluorescence analysis; type: functional, organism-based; conditions: dose 10.0 µmol/kg, time 21.0 day
# 4T1 [35] = assay: Anti-metastatic activity against mouse 4T1 cells assessed as reduction in inflammatory cell infiltration in lungs at 5 umol/kg, iv for 21 days by Hematoxylin-Eosin staining; type: functional, organism-based; conditions: dose 5.0 µmol/kg, time 21.0 day
# Mus musculus [36] = assay: Immunomodulatory activity in iv dosed BALB/c mouse xenografted with mouse 4T1 cells assessed as decrease in proportion of aged neutrophils (CD194hi|CD62Llo) in tumor tissues administered for 21 days by CyTOF analysis; type: functional, organism-based; conditions: time 21.0 day
# 4T1 [37] = assay: Anti-metastatic activity against mouse 4T1 cells assessed as reduction in tumor cell lesions in lungs at 2 umol/kg, iv for 21 days by Hematoxylin-Eosin staining; type: functional, organism-based; conditions: dose 2.0 µmol/kg, time 21.0 day
# [38] = Toxicity in BALB/c mouse xenografted with mouse 4T1 cells assessed as kidney morphological changes at 10 umol/kg, iv for 21 days by Hematoxylin-Eosin staining based analysis; type: organism-based; conditions: in vivo, 504 h, dose 10 µmol/kg, time 21 day
# 4T1 [39] = assay: Anti-metastatic activity against mouse 4T1 cells assessed as reduction in tumor cell lesions in lungs at 10 umol/kg, iv for 21 days by Hematoxylin-Eosin staining; type: functional, organism-based; conditions: dose 10.0 µmol/kg, time 21.0 day
# [40] = molecular target: Protein-arginine deiminase type-4 (Mus musculus) (UniProt Q9Z183); assay: Inhibition of PAD4 in mouse 4T1 cells assessed as reduction in citrullinated histone level at 100 uM measured after 48 hrs by Hoechst33342 staining based confocal laser scanning microscopy; type: cell-based
# [41] = Toxicity in BALB/c mouse xenografted with mouse 4T1 cells assessed as decrease in body weight at 2 to 10 umol/kg, iv measured after 9 to 15 days; type: organism-based; conditions: in vivo, dose lower 2 µmol/kg, time lower 9 day, dose upper 10 µmol/kg, time upper 15 day
# [42] = Hepatotoxicity in BALB/c mouse xenografted with mouse 4T1 cells assessed as serum AST level at 2 to 10 umol/kg, iv for 21 days; type: toxicity, organism-based; conditions: in vivo, 504 h, dose 2-10 µmol/kg, time 21 day
# [43] = molecular target: Protein-arginine deiminase type-4 (Mus musculus) (UniProt Q9Z183); assay: Inhibition of PAD4 in mouse bone marrow neutrophils assessed as reduction in citrullinated histone level at 100 uM measured after 48 hrs by Hoechst33342 staining based confocal laser scanning microscopy; type: cell-based; conditions: Neutrophil
# [44] = Hepatotoxicity in BALB/c mouse xenografted with mouse 4T1 cells assessed as serum ALT level at 2 to 10 umol/kg, iv for 21 days; type: toxicity, organism-based; conditions: in vivo, 504 h, dose 2-10 µmol/kg, time 21 day
# Sequence of Protein-arginine deiminase type-4 (Mus musculus) (Q9Z183 whole entry): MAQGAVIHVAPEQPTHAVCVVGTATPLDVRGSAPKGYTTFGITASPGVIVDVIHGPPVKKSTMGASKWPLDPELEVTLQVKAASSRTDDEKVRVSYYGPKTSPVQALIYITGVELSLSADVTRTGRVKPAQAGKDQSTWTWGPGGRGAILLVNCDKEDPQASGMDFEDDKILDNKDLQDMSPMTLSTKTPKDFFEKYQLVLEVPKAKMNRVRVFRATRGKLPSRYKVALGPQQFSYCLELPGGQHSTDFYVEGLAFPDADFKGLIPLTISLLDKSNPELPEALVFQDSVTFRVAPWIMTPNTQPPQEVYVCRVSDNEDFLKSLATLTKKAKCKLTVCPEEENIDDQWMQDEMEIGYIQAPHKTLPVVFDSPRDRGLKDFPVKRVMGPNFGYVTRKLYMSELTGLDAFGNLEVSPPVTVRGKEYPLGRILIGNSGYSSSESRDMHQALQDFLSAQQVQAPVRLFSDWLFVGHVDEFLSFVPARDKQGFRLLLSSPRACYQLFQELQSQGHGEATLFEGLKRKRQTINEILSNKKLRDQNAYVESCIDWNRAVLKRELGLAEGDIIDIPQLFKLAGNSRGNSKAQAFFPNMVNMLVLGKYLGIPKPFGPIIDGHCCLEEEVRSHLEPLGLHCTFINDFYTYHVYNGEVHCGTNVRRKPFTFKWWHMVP
# Sequence of Protein-arginine deiminase type-4 (Q9UM07 whole entry): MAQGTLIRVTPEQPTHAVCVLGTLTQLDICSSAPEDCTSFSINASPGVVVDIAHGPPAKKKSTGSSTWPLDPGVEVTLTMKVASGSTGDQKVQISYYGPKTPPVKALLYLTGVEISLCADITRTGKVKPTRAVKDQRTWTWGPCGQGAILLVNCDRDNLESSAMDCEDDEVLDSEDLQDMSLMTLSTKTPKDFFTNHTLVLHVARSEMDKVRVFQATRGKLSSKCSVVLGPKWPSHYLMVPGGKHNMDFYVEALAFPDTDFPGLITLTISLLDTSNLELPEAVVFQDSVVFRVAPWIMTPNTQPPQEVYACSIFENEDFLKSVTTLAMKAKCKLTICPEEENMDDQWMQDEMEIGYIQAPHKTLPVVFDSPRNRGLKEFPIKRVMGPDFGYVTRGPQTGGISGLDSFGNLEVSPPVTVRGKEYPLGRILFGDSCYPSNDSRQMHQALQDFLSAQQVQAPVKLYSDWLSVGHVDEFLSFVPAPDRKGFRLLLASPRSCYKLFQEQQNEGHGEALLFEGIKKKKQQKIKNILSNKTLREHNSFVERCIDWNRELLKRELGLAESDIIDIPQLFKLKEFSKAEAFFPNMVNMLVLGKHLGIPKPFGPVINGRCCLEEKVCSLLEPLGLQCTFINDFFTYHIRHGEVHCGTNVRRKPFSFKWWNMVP
compound,measurement,setting,value
N=C(CCl)NCCC[C@H](NC(=O)c1ccc(B(O)O)cc1)C(=O)NCc1ccccc1,IC50,4T1 [1],> 100 µM
same,inhibition in vivo at 10 µmol/kg,Sarcoma-180 [2],40.3%
same,Activity,Sarcoma-180 [3],0.98 g
CN(C)c1ccc2cc(C(=O)N[C@@H](CCCNC(=N)CCl)C(=O)NCc3ccccc3)ccc2c1,IC50,4T1 [1],11.9 µM
same,Activity,4T1 [4],Active
same,Activity,[5],Toxic
same,Activity,[6],Toxic
same,Activity,[7],Toxic
same,Activity,4T1 [8],Active
same,Activity,[9],Toxic
same,Activity,4T1 [10],Active
same,IC50,[11],2860 nM
same,inhibition,[12],Active
same,inhibition in vivo at 10 µmol/kg,Sarcoma-180 [2],42.7%
same,Activity,Sarcoma-180 [3],0.94 g
N=C(CCl)NCCC[C@H](NC(=O)c1cc([N+](=O)[O-])c2nonc2c1)C(=O)NCc1cccc(B(O)O)c1,Activity,4T1 [13],Active
same,Activity,[14],Non-Toxic
same,Activity,Mus musculus [15],Active
same,IC50,4T1 [1],> 100 µM
same,Activity,4T1 [4],Active
same,Activity,[16],Non-Toxic
same,Drug uptake,[17],Active
same,Activity,4T1 [18],inactive
same,Activity,Lewis lung carcinoma,inactive
same,Drug uptake,[19],Active
same,Activity,Mus musculus [20],Active
same,Activity,[21],Non-Toxic
same,Activity,[22],Non-Toxic
same,Activity,[23],Non-Toxic
same,Activity,4T1 [24],Active
same,Activity,4T1 [25],Active
same,Drug uptake,[26],Active
same,Activity,4T1 [27],Active
same,Drug uptake,[28],Active
same,Activity,4T1 [29],Active
same,Activity,4T1 [30],Active
same,Activity,4T1 [31],Active
same,Drug uptake,[32],Not Active
same,Activity,Mus musculus [33],inactive
same,Activity,L02,Non-Toxic
same,Activity,4T1 [34],Active
same,Activity,4T1 [35],inactive
same,Activity,Mus musculus [36],Active
same,Activity,4T1 [37],inactive
same,inhibition,[12],Active
same,inhibition in vivo at 10 µmol/kg,Sarcoma-180 [2],49.2%
same,Activity,[38],Non-Toxic
same,Activity,4T1 [39],Active
same,inhibition,[40],Active
same,Activity,[41],Non-Toxic
same,Activity,[42],Non-Toxic
same,inhibition,[43],Active
same,Activity,Sarcoma-180 [3],0.84 g
same,Activity,[44],Non-Toxic
N=C(CCl)NCCC[C@H](NC(=O)c1cc(F)cc(B(O)O)c1)C(=O)NCc1ccccc1,IC50,4T1 [1],> 100 µM
same,inhibition in vivo at 10 µmol/kg,Sarcoma-180 [2],38.7%
same,Activity,Sarcoma-180 [3],1.01 g
